From ChEMBL document CHEMBL4020799, “Design, synthesis of novel furan appended benzothiazepine derivatives and in vitro biological evaluation as potent VRV-PL-8a and H+/K+ ATPase inhibitors” (Bioorg Med Chem Lett, 2017)
Activity calls are given as the source filed them. The rule behind the calls is not given here.

Assays:
[1] = Inhibition of hydrogen potassium ATPase in pig stomach mucosal membrane assessed as reduction in liberated inorganic phosphate level after 15 mins by colorimetric method; format: cell membranes, Sus scrofa
[2] = biological target: T1, Basic phospholipase A2 VRV-PL-VIIIa (Daboia russelii, UniProt P59071); assay: (§1) Inhibition of Vipera russelii sPLA2 pre-incubated for 5 mins before DMPC substrate addition and measured after 45 mins
T1 sequence (P59071 whole entry): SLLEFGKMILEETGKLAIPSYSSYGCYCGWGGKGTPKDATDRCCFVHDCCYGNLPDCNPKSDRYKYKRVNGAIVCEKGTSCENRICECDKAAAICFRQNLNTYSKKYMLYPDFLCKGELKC

[3] = biological target: T2, Basic phospholipase A2 VRV-PL-VIIIa (Daboia russelii) (UniProt P59071); assay: as §1
T2 sequence (whole entry): T1 sequence (P59071 whole entry)

[4] = biological target: T2, Basic phospholipase A2 VRV-PL-VIIIa (Daboia russelii); assay: Inhibition of Vipera russelii venom sPLA2-induced hemolytic activity in human erythrocytes assessed as reduction hemoglobin release in presence of egg yolk preincubated for 5 mins followed by erythrocyte addition by spectrophotometric analysis; format: cell-based
[5] = biological target: T2, Basic phospholipase A2 VRV-PL-VIIIa (Daboia russelii); assay: Inhibition of Vipera russelii venom sPLA2 at 11.01 uM in presence of fixed concentration of calcium and 0 to 400 uM of DMPC substrate measured after 5 mins
[6] = biological target: T2, Basic phospholipase A2 VRV-PL-VIIIa (Daboia russelii); assay: Inhibition of Vipera russelii venom sPLA2 at 11.01 uM in presence of fixed concentrations of DMPC substrate and 0 to 12 uM of calcium measured after 5 mins
[7] = biological target: T2, Basic phospholipase A2 VRV-PL-VIIIa (Daboia russelii); assay: Inhibition of Vipera russelii venom sPLA2 assessed as remaining enzyme activity level at 11.01 uM in presence of fixed concentration of calcium and 400 uM of DMPC substrate measured after 5 mins

SMILES	IC50 [1] [µM]	IC50 [2] [µM]	inhibition [3]	inhibition [4]	inhibition [5]	inhibition [6]	Activity [7] [%]
O=[N+]([O-])c1ccc(C2CC(c3ccco3)=Nc3ccccc3S2)cc1 (stereo not drawn)	3.73	56.9	Dose-dependent effect	–	–	–	–
Brc1ccc(C2CC(c3ccco3)=Nc3ccccc3S2)cc1 (stereo not drawn)	2.11	24.1	Dose-dependent effect	–	–	–	–
Clc1ccc(C2CC(c3ccco3)=Nc3ccccc3S2)cc1 (stereo not drawn)	5.28	19.3	Dose-dependent effect	–	–	–	–
COc1cc(C2CC(c3ccco3)=Nc3ccccc3S2)ccc1O (stereo not drawn)	4.39	43.4	Dose-dependent effect	–	–	–	–
Fc1ccc(C2CC(c3ccco3)=Nc3ccccc3S2)cc1 (stereo not drawn)	5.1	25.2	Dose-dependent effect	–	–	–	–
c1coc(C2=Nc3ccccc3SC(c3ccc4c(c3)OCO4)C2)c1 (stereo not drawn)	5.14	25.1	Dose-dependent effect	–	–	–	–
c1ccc(C2CC(c3ccco3)=Nc3ccccc3S2)cc1 (stereo not drawn)	8.01	12	Dose-dependent effect	–	–	–	–
COc1ccc(C2CC(c3ccco3)=Nc3ccccc3S2)cc1 (stereo not drawn)	1.99	11	Dose-dependent effect	Dose-dependent effect	Active	Active	51
